One molecule from article PMC8854749, “Celastrol Inhibits Canine Mammary Tumor Cells by Inducing Apoptosis via the Caspase Pathway” (Frontiers in Veterinary Science, 2022) can be followed below.

Holding throughout (experiment): Western blot of apoptosis- and cell cycle-related proteins
What all share (format): cell-based, canine
In general terms: In western blotting, separated proteins are transferred to a membrane and probed.

Test [1] concerns CIPp cells. Conditions: inhibitor with 0.9 μM celastrol, 24 h.
The test system of test [2] is CMT-7364 cells. Conditions: inhibitor with 0.9 μM celastrol, 24 h.
Test [3] concerns CIPp cells. Particulars: inhibitor with celastrol, 24 h, vs celastrol alone. On the procedure:
(§1) The CMT-7364 and CIPp cells were treated with different concentrations of Caspase inhibitor Z-V-F and/or celastrol for 24 h, and the cells were lysed with RIPA lysis buffer on ice. The protein was extracted according to the manufacturer's instructions, and protein concentration was determined by the BCA protein concentration assay kit. The loading amount of 20 μg protein in each group was separated by 10% SDS-PAGE, the separated protein was transferred to polyvinylidene fluoride membrane. After blocking with 5% skimmed milk for 1 h, the membrane was washed two times with 0.5% PBS-Tween 20 (PBS-T), then the membrane with the primary antibody was incubated overnight in a shaker at 4°C. Primary antibodies include β-actin (1:2,000), p65 (1:1,000), NF-κB (1:1,000), Caspase-9 (1:1,000), Caspase-3 (1:1,000), Bax (1:2,000), Bcl-2 (1:1,000), Cyclin D1 (1:1,000), p21 (1:1,000), and p27 (1:1,000). After washing 3 times with PBS-T buffer for 10 min each time, the membrane was incubated with HRP-conjugated secondary antibody at 37°C for 30 min. Secondary antibodies include anti-mouse IgG antibody (1:5,000), anti-rabbit IgG antibody (1:2,000~1:4,000). The membrane was washed 3 times with PBS-T for 10 min each time. Finally, it was detected by an enhanced chemiluminescence detection system, and the results were quantified by ImageJ.

The test system of test [4] is CMT-7364 cells. Conditions: inhibitor with celastrol, 24 h, vs celastrol alone. On the procedure: as §1

Peptide text beside a SMILES is read from it. * marks the point of attachment. Cbz = O=C(OCc1ccccc1)*; CH2F = FC*

Turning to `COC(=O)C[C@H](NC(=O)[C@H](C)NC(=O)[C@@H](NC(=O)OCc1ccccc1)C(C)C)C(=O)CF` [Z-V-F, Z-VAD-FMK] (Cbz-Val-Ala-Asp(OMe)-CH2F), the “effect on 0.9 μM celastrol-induced apoptosis” value with CIPp cells [1] and with CMT-7364 cells [2] was “block” in each case. In addition, the “expression of anti-apoptotic protein Bcl-2” value in the test on CIPp cells [3] and in the test with CMT-7364 cells [4] was “increased” in each case. Also, the “expression of pro-apoptotic protein Bax induced by celastrol” value with CIPp cells [3] and in the test with CMT-7364 cells [4] was “decreased” in each case.
